Reference: US8563599B2, “Methods for synthesizing glycinols, glyceollins I and II, compositions of selected intermediates, and therapeutic uses thereof” (The United States of America, represented by the Secretary …, priority 2008, dated 2013)
Read-outs that look alike come from different tables or passages of the source.

Legend:
[1] = test system: NCI/ADR-RES cells; assay: Growth inhibition assay (NCI method, sulforhodamine B), NCI/ADR-RES; format: cell-based, human; conditions: for GI50: read-out: GI50 (μM) NCI/ADR-RES; for fall-off in activity in NCI/ADR-RES versus MCF7: multidrug resistant cell line over-expressing Pgp
[2] = test system: MCF7 cells; assay: Growth inhibition assay (NCI method, sulforhodamine B), MCF7; format: cell-based, human; conditions: for GI50: read-out: GI50 (μM) MCF7
[3] = test system: MCF12A cells; assay: Growth inhibition assay (NCI method, sulforhodamine B), MCF12A; format: cell-based, human; conditions: for GI50: read-out: GI50 (μM) MCF12A
[4] = ABTS antioxidant assay; conditions: for antioxidant activity relative to the standards daidzein and genistein: ABTS assay, summary of Table 1; for Trolox Equivalents (μmol/μmol): IC50 compared to IC50 of trolox; for IC50: concentration causing 50% reduction in ABTS absorbance, 2 min, room temperature
Description: This example illustrates how the biological data pertaining to antioxidant properties of the compounds was obtained.
The antioxidant activity of each test agent was assayed by a colorimetric assay described in the literature that utilizes 2,2′-azinobis-3-ethylbenzothiazoline-6-sulfonic acid (ABTS). ABTS has an intense blue-green color in its free radical form, but is colorless without the free radical. Free radical ABTS was generated by reacting 7 mM ABTS with 2.45 mM potassium persulfate in water for 24-48 hr at room temperature in the dark. Test agents were diluted in 50/50 phosphate buffered saline (PBS)/ethanol to a series of five concentrations, then added to a 96 well half-area plate using 50 μl per well with four wells for each agent concentration. Four control wells containing 50/50 PBS/ethanol without test agents were setup for comparison for each test agent. Trolox, a water-soluble form of vitamin E commonly employed as an antioxidant standard, was also tested in each set of experiments. The free radical ABTS solution was diluted with 50/50 PBS/ethanol to give an absorbance of 1.4 absorbance units at 734 nm, and was then added 50 μl per well to two of the four wells for each condition. The other two wells for each condition received 50 μl of 50/50 PBS/ethanol without ABTS to provide background correction absorbance readings. All dilution and plate loading operations were performed on a Packard Multiprobe II HTS automated liquid handling system. […] Readings for wells with ABTS were background corrected using the corresponding wells containing matching test agent levels without ABTS. The background corrected absorbance of each test agent concentration was then compared to the control wells without agent to determine the percent decrease in color intensity, corresponding to the percent of ABTS free radical reduction. A fit of percent absorbance decrease versus test agent concentration was then used to estimate the concentration causing a 50% reduction in absorbance, called the IC50. The test agent IC50 values were then compared to the IC50 of trolox to calculate the trolox equivalents (TE, moles of trolox needed to give the same level of antioxidant activity as one mole of test agent) for each agent. Smaller IC50 values or larger TE values indicate higher levels of antioxidant activity.

[5] = test system: estrogen receptor (ERE-luciferase) in MCF7 ER-positive cells; assay: ERE-Luciferase assay, estrogenic and antiestrogenic activity; format: cell-based, human
Description: Cell Culture Studies (MCF7 ER-Positive Cells)
Human cancer cell lines derived from breast (MCF7, ER-positive cells) were cultured in 75 ml culture flasks in DMEM (Invitrogen, Co.) supplemented with 10% FBS (Life Technologies, Inc., Gaithersburg, Md.), basic minimum MEM essential (50×, Invitrogen Co.) and MEM non-essential (100×, Invitrogen, Co.) amino acids, sodium pyruvate (100× Invitrogen Co.), antimicotic-antibiotic (10,000 U/mL penicillin G sodium; 10,000 μg/mL streptomycin sulphate; 25 μg/mL amphotericin B as Fungizone®), and human recombinant insulin (4 mg/mL. Invitrogen Co.). The culture flasks were maintained in a tissue culture incubator in a humidified atmosphere of 5% CO2 and 95% air at 37° C. For estrogen studies, cells were washed with PBS 3 times and grown in phenol red-free DMEM supplemented with 5% dextran-coated charcoal-treated FBS (5% CS-FBS) for 72 h before plating for each particular experiment.
Results were then assessed by using an ERE-luciferase assay. The cells were plated in 24 well plates at 5×10^5 cells/well in the same media and allowed to attach overnight. After 18 hours, cells were transfected for 5 h in serum supplemented-free DMEM with […] pGL2-ERE2X-TK-luciferase plasmid, using 6 μl of effectine (Qiagen)/μg of DNA. After 5 h the transfection medium was removed and replaced with phenol red-free DMEM supplemented with 5% CS-FBS containing vehicle, 17β-estradiol, GLY I, or 17β-estradiol plus GLY I, and incubated at 37° C. After 18 h the medium was removed, and 100 μl of lysis buffer was added per well and then incubated for 15 min at room temperature. Cell debris was pelleted by centrifugation at 15000×g for 5 min. cell extracts were normalized for protein concentration using reagent according to the protocol supplied by the manufacturer (Bio-Rad Laboratories, Inc., Hercules, Calif.). Luciferase activity for the cell extracts was determined using Luciferase substrate (Promega Corp.) in an Autoluminat Plus luminometer.

[6] = target: T1, hrER-α (alpha estrogen receptor) (Homo sapiens, UniProt P03372); assay: ER-α competition binding assay (fluorescence anisotropy, ES2 displacement); conditions: ERα/ES2 complex, 2 h room temperature, FIG. 9; read-out: IC50 for 50% inhibition of a standard's binding with the alpha estrogen receptor (ER-α)
T1 sequence (P03372 1-595): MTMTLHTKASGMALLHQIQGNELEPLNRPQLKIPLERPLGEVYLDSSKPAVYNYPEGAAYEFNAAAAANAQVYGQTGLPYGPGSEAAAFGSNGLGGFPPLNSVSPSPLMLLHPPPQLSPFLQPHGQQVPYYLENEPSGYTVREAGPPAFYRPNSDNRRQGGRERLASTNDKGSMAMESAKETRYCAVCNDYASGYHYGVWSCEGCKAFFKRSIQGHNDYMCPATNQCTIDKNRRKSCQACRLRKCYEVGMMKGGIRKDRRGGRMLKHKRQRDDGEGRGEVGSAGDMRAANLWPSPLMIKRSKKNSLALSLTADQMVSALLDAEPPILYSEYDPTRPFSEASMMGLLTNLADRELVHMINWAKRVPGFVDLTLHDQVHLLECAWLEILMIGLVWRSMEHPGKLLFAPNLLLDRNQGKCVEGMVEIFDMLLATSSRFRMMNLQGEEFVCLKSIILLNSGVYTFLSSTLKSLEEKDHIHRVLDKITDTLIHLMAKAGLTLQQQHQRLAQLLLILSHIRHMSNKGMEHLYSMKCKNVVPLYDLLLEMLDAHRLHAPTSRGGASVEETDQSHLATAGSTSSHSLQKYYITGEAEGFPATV
Description: This example illustrates how the biological data pertaining to interaction of the compounds with the alpha-estrogen receptors was obtained.
A 200 μM working stock solution of GLY I was prepared from an original 10 mM DMSO stock solution. The working stock solution was serially diluted in triplicate in screening buffer to the desired concentrations. hrER-α and ES2 were added to a final concentration of 2 nM and 3 nM, respectively. Negative (ER+ES2, equivalent to 0% inhibition) and positive (free ES2, equivalent to 100% inhibition) controls in the absence of competitor were measured in duplicate. After 2 h at room temperature, the anisotropy values in each tube were measured using the Beacon 2000 system CO. The anisotropy values were converted to percent inhibition using the following formula: I%=(A0−A)/(A0−A100)×100, where I% is the percent inhibition, A0 is 0% inhibition, A100 is 100% inhibition, and A represents the observed value. Polarization values were converted to percent inhibition to make the data more intuitive to the reader and to normalize the day-to-day differences in the starting 0% inhibition polarization values. The percent inhibition versus competitor concentration curves were analyzed by nonlinear least-squares curve fitting and yielded an IC50 value (the concentration of competitor needed to displace half of the bound ligand). To compare binding affinities of the test compounds to those reported in the literature, IC50 values were converted to relative binding affinities (RBA) using E2 as a standard. The E2 RBA was set equal to 100 […].

[7] = Homo sapiens, NCI/ADR-RES, 48 h
[8] = multidrug resistant cell line, 48 hr
[9] = human breast cancer cells, 48 hr, 10% serum
[10] = non-cancerous 'normal' human breast epithelial cells, 48 hr
[11] = Homo sapiens, NCI/ADR-RES, multidrug resistant cell line, 48 hr
[12] = MCF7, human breast cancer cells, 48 hr, 10% serum
[13] = MCF-12A, non-cancerous 'normal' human breast epithelial cells, 48 hr

With `CC(C)(C)[Si](C)(C)Oc1ccc(C2(O)COc3cc(OCc4ccccc4)ccc3C2O)c(OCc2ccccc2)c1` (racemic) [2 (+/−), (+) 4′-(t-Butyldimethylsilyloxy)-2′,7-dibenzyloxy-isoflavan-3,4-diol] the GI50 [1, 7] was 120 µM, the “fall-off in activity in NCI/ADR-RES versus MCF7” value [1] was “ca. 100 fold” and the GI50 ([2]; Homo sapiens, MCF7, 48 h) was 10 µM. The GI50 ([3]; Homo sapiens, MCF-12A, 48 h) was 20 µM, the “antioxidant activity relative to the standards daidzein and genistein” value [4] was “weak activity” and the “Trolox Equivalents (μmol/μmol)” value [4] was 0.008 ± 0.006 μmol/μmol. The IC50 [4] was > 100 µM.
Work on `CC(C)(C)[Si](C)(C)Oc1ccc(C2(O)COc3cc(O)ccc3C2O)c(O)c1` (racemic) [3 (+/−), (+) 4′-(t-Butyldimethylsilyloxy)-2′,7-dihydroxy-isoflavan-3,4-diol] yielded a GI50 [1, 7] of 21 µM, a GI50 ([2]; Homo sapiens, MCF7, 48 h) of 31 µM and a GI50 ([3]; Homo sapiens, MCF-12A, 48 h) of 36 µM. The “Trolox Equivalents (μmol/μmol)” value [4] was 2.0 ± 0.1 μmol/μmol and the IC50 [4] was 4.6 ± 0.3 µM.
Work on `CC(C)(C)[Si](C)(C)Oc1ccc2c(c1)OC1c3ccc(O)cc3OCC21O` (racemic) [4 (+/−), (+) 9-(t-Butyldimethylsilyloxy)-glycinol] yielded a GI50 [1, 8] of 2.9 µM, a GI50 [2, 9] of 4.1 µM and a GI50 [3, 10] of 4 µM. For the same compound, the “Trolox Equivalents (μmol/μmol)” value [4] was 2.0 ± 0.1 μmol/μmol and the IC50 [4] was 4.6 ± 0.2 µM.
For `Oc1ccc2c(c1)OC[C@@]1(O)c3ccc(O)cc3O[C@@H]21` (racemic) [Glycinol (+/−), (+) Glycinol], the “estrogenic activity (ERE-Luciferase)” value ([5]; concentration not given) was “significantly stronger estrogenic material”, the GI50 [1, 8] was > 1000 µM and the GI50 [2, 9] was > 1000 µM. For the same compound, the “growth inhibitory activity” value ([2]; human breast cell lines, 10% serum) was “lack of growth inhibitory activity”, the GI50 [3, 10] was > 1000 µM and the “antioxidant activity relative to the standards daidzein and genistein” value [4] was “about equiactive to the standards”. The “Trolox Equivalents (μmol/μmol)” value [4] was 2.8 ± 0.2 μmol/μmol and the IC50 [4] was 3.5 ± 0.3 µM.
With `CC(C)(C)[Si](C)(C)Oc1ccc2c(c1)OC1c3ccc(O)cc3OCC21O` (single isomer, unassigned; (+)) [4 (+), (+) 9-(t-Butyldimethylsilyloxy)-glycinol] the GI50 [1, 8] was 13 µM, the GI50 [2, 9] was 14 µM and the GI50 [3, 10] was 15 µM. For the same compound, the “Trolox Equivalents (μmol/μmol)” value [4] was 1.9 ± 0.1 μmol/μmol and the IC50 [4] was 5 ± 0.4 µM.
With `CC(C)(C)[Si](C)(C)Oc1ccc2c(c1)OC1c3ccc(O)cc3OCC21O` (single isomer, unassigned; (-)) [4 (−), (−) 9-(t-Butyldimethylsilyloxy)-glycinol] the GI50 [1, 8] was 8.7 µM, the GI50 [2, 9] was 7.1 µM and the GI50 [3, 10] was 11 µM. For the same compound, the “Trolox Equivalents (μmol/μmol)” value [4] was 1.9 ± 0.1 μmol/μmol and the IC50 [4] was 5 ± 0.5 µM.
For `CC1(C)C=Cc2c(ccc3c2OC[C@]2(O)c4ccc(O)cc4O[C@H]32)O1` [7 (+), (+) Glyceollin I (Unnatural Glyceollin I)], the “estrogenic activity (ERE-Luciferase)” value ([5]; at 10-25 μM) was “modest estrogenic activity”, the “anti-estrogenic effects (ERE-Luciferase)” value ([5]; concentration not given) was “only slight anti-estrogenic effects” and the GI50 [1, 11] was 38 µM. For the same compound, the GI50 [2, 12] was 21 µM, the GI50 [3, 13] was 31 µM and the “Trolox Equivalents (μmol/μmol)” value [4] was 1.8 ± 0.1 μmol/μmol. It also gave an IC50 [4] of 5.2 ± 0.3 µM and an IC50 [6] of 1.4 µM.
In the case of `CC1(C)C=Cc2c(ccc3c2OC[C@@]2(O)c4ccc(O)cc4O[C@@H]32)O1` [7 (−), Glyceollin I (Natural Glyceollin I)], the “anti-estrogenic activity (ERE-Luciferase)” value ([5]; at 10-25 μM) is reported as “only anti-estrogenic activity”, the GI50 [1, 11] is reported as 27 µM and the GI50 [2, 12] is reported as 12 µM. For the same compound, the GI50 [3, 13] was 25 µM, the “Trolox Equivalents (μmol/μmol)” value [4] was 1.8 ± 0.1 μmol/μmol and the IC50 [4] was 5.3 ± 0.3 µM. It also gave an IC50 [6] of 1.4 µM.
`O=c1c(-c2ccc(O)cc2)coc2cc(O)ccc12` [Daidzein, reference compound] showed a GI50 [1, 11] of 150 µM, a GI50 [2, 12] of 200 µM and a GI50 [3, 13] of 120 µM. The “Trolox Equivalents (μmol/μmol)” value [4] was 3.0 ± 0.1 μmol/μmol and the IC50 [4] was 3.3 ± 0.2 µM.
For `O=c1c(-c2ccc(O)cc2)coc2cc(O)cc(O)c12` [Genistein, reference compound], the GI50 [1, 11] was 17 µM, the GI50 [2, 12] was 46 µM and the GI50 [3, 13] was 22 µM. The “Trolox Equivalents (μmol/μmol)” value [4] was 3.0 ± 0.1 μmol/μmol and the IC50 [4] was 3.3 ± 0.1 µM.
For `CC1(C)C=Cc2c(ccc3c2OC[C@@]2(O)c4ccc(O)cc4O[C@@H]32)O1` [isolated GLY I, reference compound], the IC50 [6] was 1.1 µM.
In the case of `CC(=O)O[C@H]1C(=O)[C@@]2(C)[C@H]([C@H](OC(=O)c3ccccc3)[C@]3(O)C[C@H](OC(=O)[C@H](O)[C@@H](NC(=O)c4ccccc4)c4ccccc4)C(C)=C1C3(C)C)[C@]1(OC(C)=O)CO[C@@H]1C[C@@H]2O` [paclitaxel, reference compound], the “fall-off in activity in NCI/ADR-RES versus MCF7” value [1] is reported as ~1,000 fold and the “potency in MCF7 versus MCF12A (differential in activity)” value ([3]; cancer versus normal breast cells) is reported as “nearly equivalent”.
